Laboratory results published in publication PMC5011342, “A high throughput drug screening assay to identify compounds that promote oligodendrocyte differentiation using acutely dissociated and purified oligodendrocyte precursor cells” (BMC Research Notes, 2016).
“And” between values parts separate entries of the source, which are not always exact repeats. Identical values can stand only once. Counter-ions that a name gives are not always drawn. Like-named read-outs stand apart in the source and are kept apart here. Starred links: 1 amine or outer side, 2 acyl side, 3 side chain; linkers in the order of their positions; H or OH if unused. Positions of bridges follow the written chain, without caps; N, C: chain ends. Non-standard residues stand in square brackets, D forms with d. Residues, ends and D or L forms follow the SMILES beside them. Chains are numbered I, II in the order given. Actinocin(9to1) = Cc1c2oc3c(C)ccc(C(=O)[*:1])c3nc-2c(C(=O)[*:2])c(N)c1=O; NMeV = CN[C@H](C(=O)O)C(C)C; Sar = CNCC(=O)O

Columns and labels:
[1] = system: acutely dissociated and purified rat OPCs; experiment: Acute OL differentiation assay (MBP expression/cell, immunofluorescent image quantification); format: cell-based
Procedure: In order to identify compounds with the potential to promote OL differentiation in vivo and thereby enhance remyelination, we first wanted to establish an in vitro assay system that would closely mimic conditions in vivo. To do this, we started by using OPCs acutely isolated from postnatal day 6–7 (P6–7) rat brains by O4 immunopanning. […] OPCs were plated directly onto a biological substrate (PDL/laminin) in 96-well view plates at moderate density to allow for sufficient room to expand processes during differentiation. We plated cells in serum-free medium lacking OPC mitogens (no PDGF or FGF) to allow a basal level of OL differentiation to commence, and as a positive control added thyroid hormone (T3, 40 ng/ml) to accelerate differentiation (Fig. 1, flow scheme).
Fig. 1 Flow scheme of the acute OL differentiation assay. a Purified oligodendrocyte precursor cells (OPCs) were cultured from P7 rat cortex and plated into PDL/laminin pre-coated 96-well plates. b One hour later test compounds were added. c OPC cultures with compound were maintained in culture for an additional 4 days. d On the 5th day with compound, cells were fixed and immunostained with anti-MBP antibodies and DAPI. e Images were acquired with automated fluorescence microscopy and scored phenotypically for OL differentiation (see “Methods” section)
To quantify the extent of OL differentiation occurring in treatment conditions, we measured the overall amount of MBP expression/cell (see “Methods” section). Figure 2a depicts the mask created over MBP staining under which the MBP expression was quantified. […]
All animal work was carried out in strict accordance with the recommendations in the Guide for the Care and Use of Laboratory Animals of the National Institutes of Health. The protocol was approved by the Institutional Use and Care and Use Committee at the Molecular Medicine Research Institute (Sunnyvale, CA). Animals used for OPC isolation in these studies were euthanized by decapitation. OPCs from brains of P6-P7 Sprague–Dawley rat pups (Charles River, Wilmington, MA, USA) were enriched by immunopanning as previously described (Dugas et al. 2006). Briefly, single cell suspensions were obtained from papain-digested neonatal brains and depleted of mature glial cells by successive panning with RAN-2- and GalC-coated plates, followed by enrichment for OPCs using O4-coated plates. OPCs were plated in differentiation media (DMEM, 100 U/ml Penicillin/100 µg/ml streptomycin, 2 mM L-glutamine, 1 mM Na pyruvate, 5 µg/ml insulin, 5 µg/ml N-acetyl-L-cysteine, 1× trace elements B,10 ng/ml d-Biotin, 100 µg/ml BSA, 100 µg/ml apo-transferrin, 16 µg/ml putrescine, 60 ng/ml progesterone, 40 ng/ml sodium selenite 5 ng/ml forskolin, 10 ng/ml CNTF, 1 ng/ml NT-3).
Acutely enriched OPCs were plated in differentiation media at 5000 cells/well into PDL/laminin coated 96-well view plates and centrifuged at 200×g to facilitate cell attachment, survival, and even distribution of OPCs. OPCs were pre-incubated for 1–2 h at 37 °C in 10 % CO2, followed by the addition of test compounds in quadruplicate. Controls were added in eight replicate wells, negative control = 0.1 % DMSO; positive control = 40 ng/ml T3. The day of OPC plating was considered DIV0. On DIV4, cells were fixed, immunostained for myelin basic protein (MBP) expression, imaged and quantified as described below.

[2] = system: expanded OPCs; experiment: cells; conditions: for viability at 0.1 µM / viability at 1 µM / viability at 10 µM: Rattus norvegicus, 72 h
Procedure: Having established a consistent assay for measuring OL differentiation in vitro, the next step was to utilize this assay to assess the ability of a wide array of compounds to promote OL differentiation. Prior to library screening, we first established the maximum non-toxic dose of each compound in the library. […] Therefore, we added each compound in the NIH clinical collection (NCC) library to OPCs at 10, 1, and 0.1 µM concentrations. Three days later, we assessed viability of the treated cells by measuring AlamarBlue fluorescence, a measure of cell viability (see “Methods” section). […] Appropriately, we established three sets of screening concentrations for library compounds: non-toxic compounds were tested at 10 and 2 µM, slightly toxic compounds (only toxic at 10 µM) were tested at 2 and 0.4 µM, and very toxic compounds were tested at 0.4 and 0.08 µM.
OPCs were expanded in vitro by seeding into PDL-coated tissue culture flasks at 1000–2000 cells/cm^2 in differentiation media supplemented with 10 ng/ml PDGF-AA. Proliferating OPCs were fed every 2–3 days and supplemented with 2–3× concentration of PDGF as needed to prevent OPC differentiation. After 6–7 days of proliferation, OPCs were harvested by trypsinization, plated into PDL-coated 96-well Falcon plates and centrifuged at 200×g to facilitate cell attachment, survival, and even distribution of cells. Expanded OPCs were seeded in differentiation media at 10,000 cells/well and incubated for 2 h at 37 °C, 10 % CO2 prior to addition of compounds. The NCC library was diluted and added to cells at 10, 1, and 0.1 µM; each concentration was tested in quadruplicate. As a positive control for the induction of toxicity, 5 ng/ml tunicamycin was added to 8 wells in each plate. Three days later, a 1:10 dilution of alamarBlue® (AB) was added to each well and cells were incubated 4 h at 37 °C, 10 % CO2. AB fluorescence was measured using a PerkinElmer Victor II fluorescence microplate reader (PerkinElmer, Waltham, MA) with 560 nm excitation/590 nm emission filters. For library screening, the highest concentration of each compound was adjusted to a minimally toxic concentration based on this toxicity data. Compounds were additionally tested at a second concentration that was 1/5th of the top concentration. The final concentration of DMSO in each well was 0.1 %.

[3] = alamarBlue viability of expanded OPCs, compound at 0.1 µM, relative to DMSO control
[4] = alamarBlue viability of expanded OPCs, compound at 1 µM, relative to DMSO control
[5] = alamarBlue viability of expanded OPCs, compound at 10 µM, relative to DMSO control
[6] = read-out: 0.1 µM (% DMSO), alamarBlue viability of expanded OPCs, compound at 0.1 µM, sheet All Tox data
[7] = read-out: 1 µM (% DMSO), alamarBlue viability of expanded OPCs, compound at 1 µM, sheet All Tox data
[8] = read-out: 10 µM (% DMSO), alamarBlue viability of expanded OPCs, compound at 10 µM, sheet All Tox data
[9] = read-out: 0.1 µM (% DMSO), alamarBlue viability, NCC library compound at 0.1 µM, sheet "All Tox data"
[10] = read-out: 1 µM (% DMSO), alamarBlue viability, NCC library compound at 1 µM, sheet "All Tox data"
[11] = read-out: 10 µM (% DMSO), alamarBlue viability, NCC library compound at 10 µM, sheet "All Tox data"

Cc1c(C(=O)NN2CCCCC2)nn(-c2ccc(Cl)cc2Cl)c1-c1ccc(I)cc1 [AM 251]
0.4 uM (% Quet) [1]: -5.0 % Quet
2 uM (% Quet) [1]: -199.0 % Quet

COc1cccc2c1C(=O)c1c(O)c3c(c(O)c1C2=O)C[C@@](O)(C(=O)CO)C[C@@H]3O[C@H]1C[C@H](N)[C@H](O)[C@H](C)O1 [Adriamycin]
0.1 µM (% DMSO) [2, 3]: 9.9 % DMSO
0.1 µM (% DMSO) ([2]; alamarBlue viability of expanded OPCs, compound at 0.1 µM, sheet All Tox data): 84.2 % DMSO
1 µM (% DMSO) [2, 4]: 9.6 % DMSO
1 µM (% DMSO) ([2]; alamarBlue viability of expanded OPCs, compound at 1 µM, sheet All Tox data): 11.2 % DMSO
10 µM (% DMSO) [2, 5]: 7.8 % DMSO
10 µM (% DMSO) ([2]; alamarBlue viability of expanded OPCs, compound at 10 µM, sheet All Tox data): 11.9 % DMSO

Nc1ncnc2c1ncn2[C@@H]1O[C@H](CO)C[C@H]1O [Cordycepin]
viability at 0.1 µM [2, 6]: 71.9%
viability at 1 µM [2, 7]: 38.3%
viability at 10 µM [2, 8]: 16%

C[C@]12CCC(=O)C=C1CC[C@@H]1[C@@H]2C(=O)C[C@@]2(C)[C@H]1CC[C@]2(O)C(=O)CO [Cortisone]
0.1 µM (% DMSO) ([2]; alamarBlue viability, NCC library compound at 0.1 µM, sheet "All Tox data"): 99.5 % DMSO
1 µM (% DMSO) ([2]; alamarBlue viability, NCC library compound at 1 µM, sheet "All Tox data"): 105.4 % DMSO
10 µM (% DMSO) ([2]; alamarBlue viability, NCC library compound at 10 µM, sheet "All Tox data"): 105.4 % DMSO

Cc1c2oc3c(C)ccc(C(=O)N[C@@H]4C(=O)N[C@H](C(C)C)C(=O)N5CCC[C@H]5C(=O)N(C)CC(=O)N(C)[C@@H](C(C)C)C(=O)O[C@@H]4C)c3nc-2c(C(=O)N[C@@H]2C(=O)N[C@H](C(C)C)C(=O)N3CCC[C@H]3C(=O)N(C)CC(=O)N(C)[C@@H](C(C)C)C(=O)O[C@@H]2C)c(N)c1=O [Dactinomycin] (I: T[dV]P[Sar][NMeV] / II: T[dV]P[Sar][NMeV]; ester I:1-I:C, II:1-II:C; linker I:N-II:N via Actinocin(9to1))
viability at 0.1 µM ([2]; read-out: 0.1 µM (% DMSO)): 10.2%
viability at 1 µM ([2]; read-out: 1 µM (% DMSO)): 11.1%
viability at 10 µM ([2]; read-out: 10 µM (% DMSO)): 12.2%

COc1cccc2c1C(=O)c1c(O)c3c(c(O)c1C2=O)C[C@@](O)(C(=O)CO)C[C@@H]3O[C@H]1C[C@H](N)[C@H](O)[C@H](C)O1 [Doxorubicin]
viability at 0.1 µM [2, 6]: 86.2%
viability at 1 µM [2, 7]: 11%
viability at 10 µM [2, 8]: 13.4%

C[C@]12CCC(=O)C=C1CC[C@@H]1[C@@H]2[C@@H](O)C[C@@]2(C)[C@H]1CC[C@]2(O)C(=O)CO [Hydrocortisone]
0.1 µM (% DMSO) [2, 3]: 122.3 % DMSO and 114.4 % DMSO
1 µM (% DMSO) [2, 4]: 115.5 % DMSO and 108.5 % DMSO
10 µM (% DMSO) [2, 5]: 113.8 % DMSO and 107.0 % DMSO

CC(=O)[C@]1(O)Cc2c(O)c3c(c(O)c2[C@@H](O[C@H]2C[C@H](N)[C@H](O)[C@H](C)O2)C1)C(=O)c1ccccc1C3=O [Idarubicin]
viability at 0.1 µM [2, 6]: 13.9%
viability at 1 µM [2, 7]: 10.9%
viability at 10 µM [2, 8]: 11.4%

Cc1ccc(NC(=O)c2ccc(CN3CCN(C)CC3)cc2)cc1Nc1nccc(-c2cccnc2)n1 [Imatinib mesylate]
viability at 0.1 µM [2, 9]: 93.7%
viability at 1 µM [2, 10]: 70.5%
viability at 10 µM [2, 11]: 18%

CN(C)CCCN1c2ccccc2CCc2ccccc21 [Imipramine]
viability at 0.1 µM [2, 9]: 79.4%
viability at 1 µM [2, 10]: 61.9%
viability at 10 µM [2, 11]: 30.6%

O=C1c2c(O)ccc(O)c2C(=O)c2c(NCCNCCO)ccc(NCCNCCO)c21 [Mitoxantrone]
0.1 µM (% DMSO) [2, 3]: 9.7 % DMSO
1 µM (% DMSO) [2, 4]: 9.0 % DMSO
10 µM (% DMSO) [2, 5]: 7.8 % DMSO
